Measured values taken from patent US20250262299A1, “DOSING FOR TREATMENT WITH ANTI-FCRH5/ANTI-CD3 BISPECIFIC ANTIBODIES” (Genentech, Inc., priority 2022, published 2025).

Key:
MM = conditions: lenalidomide maintenance, active vs. control; cited from earlier work
R/R MM = assay: Study GO39775 / cevostamab monotherapy clinical studies in patients with R/R MM; type: in vivo, human
Description: As of November 2021, two studies are ongoing to confirm the safety and efficacy of cevostamab in this patient population. As such, combination with lenalidomide is expected to deepen and prolong response in patients in remission on the following basis: • FcRH5 is a cell-surface antigen whose expression is restricted to cells of the B linage, including plasma cells. […] Rationale for Cevostamab Dose
The dosing schedule has been modified from a 21-day cycle to a 28-day cycle to accommodate lenalidomide dosing and to ease patient treatment burden. […] A lower target dose of 90 mg Q2W will be the starting point of dose escalation towards 132 mg. These doses have been selected based on the full body of evidence available across cevostamab studies, considering PD, PK, safety, and efficacy data.

[1] = Compatibility testing in extension sets; type: physicochemical; conditions: IV infusion extension sets
Description: Cevostamab will be administered as a fixed dose independent of body weight. Cevostamab will be administered to patients by IV infusion using standard IV bags where applicable. […] The drug product will be delivered by IV bag infusion, with a final cevostamab volume determined by the dose.

[2] = test system: human MM cell lines and primary human MM plasma cells; conditions: cells with a wide range of FcRH5 expression levels, including minimal expression; cited from earlier work
Fc (Fcγ) receptors = conditions: N297G non-glycosylated antibody; cited from earlier work
[3] = Study GO39775, 0.3/3.6/160 mg, patients with R/R MM
[4] = Study GO39775, preliminary findings
[5] = cevostamab monotherapy, patients with R/R MM

| Molecule | overall survival (OS) (MM) | progression-free survival (PFS) (MM) | safety of target dose (R/R MM; Study GO39775, 160 mg every three weeks (Q3W)) | induction of response with double step-up dosing (R/R MM; [3]) | safety of double step-up dosing (R/R MM; [3]) | clinical response in patients with the lowest FcRH5 expression (R/R MM; [4]) | objective response in relation to baseline FcRH5 expression (R/R MM; [4]) | efficacy (R/R MM; [5]) | safety profile (R/R MM; [5]) | stability in extension sets [1] | cell killing [2] | binding to Fc (Fcγ) receptors (Fc (Fcγ) receptors) |
| --- | --- | --- | --- | --- | --- | --- | --- | --- | --- | --- | --- | --- |
| Nc1cccc2c1CN(C1CCC(=O)NC1=O)C2=O (stereo not drawn) [lenalidomide] | statistically significant increase | statistically significant increase |  |  |  |  |  |  |  |  |  |  |
| cevostamab: Fc-engineered, humanized, full-length non-glycosylated IgG1 kappa T-cell-dependent bispecific antibody (TDB) that binds FcRH5 and CD3 |  |  | found to be safe | effective at inducing a response | safe | Clinical response has been observed | able to achieve an objective response to cevostamab treatment regardless of baseline FcRH5 expression | shown efficacy | acceptable safety profile | stable in extension sets | broadly active in cell killing | minimal binding |
